According to patent publication US6534530B1, “Antipicornaviral compounds and compositions, their pharmaceutical uses, and materials for their synthesis” (Agouron Pharmaceuticals, Inc., priority 1999, dated 2003):
Where two headings read alike, the source gives them in different places.

Tests used:
in vitro = details: human
[1] = molecular target: T1, recombinant rhinovirus 3C protease, serotype 16 (Human rhinovirus 16, UniProt Q82122); test: Inhibition of rhinovirus 3C protease (FRET assay), serotype 16; format: biochemical; details: HRV-16 3C protease
T1 construct: Recombinant rhinovirus 3C proteases; made in house
T1 sequence (Q82122 1511-1693): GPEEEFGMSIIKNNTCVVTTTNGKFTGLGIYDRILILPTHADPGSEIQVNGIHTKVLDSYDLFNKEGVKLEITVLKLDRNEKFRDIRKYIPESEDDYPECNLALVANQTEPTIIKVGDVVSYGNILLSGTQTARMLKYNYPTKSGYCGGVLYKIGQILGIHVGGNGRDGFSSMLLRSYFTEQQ
Procedure: (§1) Stock solutions (50 mM, in DMSO) of various compounds were prepared; dilutions were in the same solvent. Recombinant rhinovirus 3C proteases (see Birch et al., “Purification of recombinant human rhinovirus 14 3C protease expressed in Escherichia coli,” Protein Expr. Pur. (1995), vol. 6(5), 609-618) from serotypes 14, 16, and 2 were prepared by the following standard chromatographic procedures: (1) ion exchange using Q Sepharose Fast Flow from Pharmacia; (2) affinity chromatography using Affi-Gel Blue from Biorad; and (3) sizing using Sephadex G-100 from Pharmacia. Each assay sample contained 2% DMSO, 50 mM tris pH 7.6, 1 mM EDTA, a test compound at the indicated concentration, approximately 1 μM substrate, and 50-100 nM protease. The kobs/I values were obtained from reactions initiated by addition of enzyme rather than substrate. RVP activity was measured in the fluorescence resonance energy transfer assay. The substrate was (N-terminal) DABCYL-([…]-EDANS. In the uncleaved peptide, the EDANS fluorescence was quenched by the proximal DABCYL moiety. When the peptide was cleaved, the quenching was relieved, and activity was measured as an increase in fluorescence signal. The tabulated data in the column designated kobs/[I] were measured from progress curves in enzyme start experiments.

HRV-14 = test: Antirhinoviral H1-HeLa cell culture assay (XTT), HRV-14; format: cell-based, human rhinovirus
[2] = molecular target: T2, recombinant rhinovirus 3C protease, serotype 2 (Human rhinovirus 2, UniProt P04936); test: Inhibition of rhinovirus 3C protease (FRET assay), serotype 2; format: biochemical; details: HRV-2 3C protease
T2 construct: Recombinant rhinovirus 3C proteases; made in house
T2 sequence (P04936 1508-1690): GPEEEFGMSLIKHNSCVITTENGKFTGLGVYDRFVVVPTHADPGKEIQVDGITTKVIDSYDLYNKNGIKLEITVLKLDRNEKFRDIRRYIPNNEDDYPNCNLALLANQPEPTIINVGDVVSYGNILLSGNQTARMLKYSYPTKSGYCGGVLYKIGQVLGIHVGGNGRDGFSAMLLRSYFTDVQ
Procedure: as §1

[3] = molecular target: T3, recombinant rhinovirus 3C protease, serotype 14 (Human rhinovirus 14, UniProt P03303); test: Inhibition of rhinovirus 3C protease (FRET assay), serotype 14; format: biochemical
T3 construct: Recombinant rhinovirus 3C proteases; made in house
T3 sequence (P03303 1538-1719): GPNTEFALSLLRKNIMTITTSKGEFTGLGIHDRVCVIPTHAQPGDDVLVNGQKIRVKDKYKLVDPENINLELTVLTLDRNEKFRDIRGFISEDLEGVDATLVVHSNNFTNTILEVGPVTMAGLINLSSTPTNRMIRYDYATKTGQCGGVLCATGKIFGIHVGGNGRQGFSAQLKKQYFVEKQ
Procedure: as §1

H1-HeLa cells = test: Cytotoxicity in mock-infected H1-HeLa cells (antirhinoviral assay, XTT); details: HRV-14
[4] = molecular target: T4, rhinovirus 3C protease, HRV-89 (Human rhinovirus A serotype 89, UniProt P07210); test: Inhibition of rhinovirus 3C protease (FRET assay), serotype 89; format: biochemical, human rhinovirus 89; details: HRV-89 3C protease
T4 construct: Recombinant rhinovirus 3C proteases
T4 sequence (P07210 1522-1704): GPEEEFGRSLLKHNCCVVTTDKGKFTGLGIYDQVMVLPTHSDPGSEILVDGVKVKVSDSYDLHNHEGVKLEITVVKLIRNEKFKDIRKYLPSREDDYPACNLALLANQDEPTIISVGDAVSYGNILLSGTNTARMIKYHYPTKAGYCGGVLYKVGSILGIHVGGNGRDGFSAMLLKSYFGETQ

[5] = Rhinovirus B, HRV14, HRV-14, H1-HeLa cells

| Compound | CC50 at 2 days (in vitro; mock-infected H1-HeLa cells) [µM] | EC50 (HRV-14; [5]) [µM] | Ki [3] [µM] | also measured |
| --- | --- | --- | --- | --- |
| CC(=O)NC[C@H](NC(=O)[C@H](Cc1ccccc1)NC(=O)[C@H](CC(C)C)NC(=O)OCc1ccccc1)C(=O)c1nccs1 [Compound 13, Cbz-L-Leu-L-Phe-L-(N-Ac-amino-Ala)-2-Thiazole] | 56 | > 56 | 24 | Ki [1]: 4 µM; Ki [2]: 13.3 µM |
| CSCC(=O)[C@H](CCC(=O)NC(c1ccccc1)(c1ccccc1)c1ccccc1)NC(=O)[C@H](Cc1ccccc1)NC(=O)[C@H](CC(C)C)NC(=O)OCc1ccccc1 [Compound 1, Cbz-L-Leu-L-Phe-L-(Tr-Gln)-CH2SCH3] |  |  | 9 |  |
| Cc1cc(CCCCCCCOc2ccc(C3=N[C@@H](C)CO3)cc2)on1 [WIN52084, reference compound] |  |  |  | CC50 (H1-HeLa cells): > 10 µM; EC50 (HRV-14; HRV-14, H1-HeLa cells): 0.07 µM |
| CCOC(=O)c1ccc(OCCC2CCN(c3ccc(C)nn3)CC2)cc1 [Pirodavir, reference compound] |  | 0.03 |  | CC50 at 2 days (in vitro): > 10 µM |
| CC(=O)NC[C@H](NC(=O)[C@H](Cc1ccccc1)NC(=O)[C@H](CC(C)C)NC(=O)OCc1ccccc1)C(C)=O [Compound 5, Cbz-L-Leu-L-Phe-L-(N-Ac-amino-Ala)-CH3] |  |  | 138 |  |
| CC(=O)[C@H](C[C@@H]1CCNC1=O)NC(=O)[C@H](Cc1ccccc1)NC(=O)[C@H](CC(C)C)NC(=O)OCc1ccccc1 [Compound 24, Cbz-L-Leu-L-Phe-L-[(S)-Pyrrol-Ala]-CH3] | > 10 | > 10 | 0.65 |  |
| CSCC(=O)[C@H](CCC(N)=O)NC(=O)[C@H](Cc1ccccc1)NC(=O)[C@H](CC(C)C)NC(=O)OCc1ccccc1 [Compound 2, Cbz-L-Leu-L-Phe-L-(Gln)-CH2SCH3] |  |  | 50 |  |
| C=CC(=O)[C@H](CNC(C)=O)NC(=O)[C@H](Cc1ccccc1)NC(=O)[C@H](CC(C)C)NC(=O)OCc1ccccc1 [Compound 15, Cbz-L-Leu-L-Phe-L-(N-Ac-amino-Ala)-CH=CH2] | > 100 | > 100 | 0.098 |  |
| CC(=O)NC[C@H](NC(=O)[C@H](Cc1ccccc1)NC(=O)[C@H](CC(C)C)NC(=O)OCc1ccccc1)C(=O)COCCc1ccccc1 [Compound 18, Cbz-L-Leu-L-Phe-L-(N-Ac-amino-Ala)-CH2OCH2CH2Ph] | 20 | > 20 | 9.1 | Ki [1]: 6.7 µM; Ki [4]: 14 µM; Ki [2]: 11 µM |
| CC(C)C[C@H](NC(=O)OCc1ccccc1)C(=O)N[C@@H](Cc1ccccc1)C(=O)N[C@@H](CNC(=O)OC(C)(C)C)C(=O)c1ccccn1 [Compound 7, Cbz-L-Leu-L-Phe-L-(N-Boc-amino-Ala)-2-Pyridine] |  |  | 71 |  |
| Cc1cc(CCCOc2c(C)cc(-c3noc(C(F)(F)F)n3)cc2C)on1 [Pleconaril, reference compound] | > 10 | 0.01 |  |  |
| CC(=O)NC[C@@H](NC(=O)[C@H](Cc1ccccc1)NC(=O)[C@H](CC(C)C)NC(=O)OCc1ccccc1)C(=O)C(=O)N1CCCCC1 [Compound 12, Cbz-L-Leu-L-Phe-D-(N-Ac-amino-Ala)-C(O)-Piperidine] |  | 39 | 10.7 |  |
| CC(=O)NC[C@H](NC(=O)[C@H](Cc1ccccc1)NC(=O)[C@H](CC(C)C)NC(=O)OCc1ccccc1)C(=O)c1ccccn1 [Compound 8, Cbz-L-Leu-L-Phe-L-(N-Ac-amino-Ala)-2-Pyridine] |  |  | 80 |  |
| C#CC(=O)[C@H](CNC(C)=O)NC(=O)[C@H](Cc1ccccc1)NC(=O)[C@H](CNC(C)=O)NC(=O)OCc1ccccc1 [Compound 16] | > 100 | > 100 | 0.035 |  |
| Cc1cc(CCCCCOc2c(Cl)cc(C3=NCCO3)cc2Cl)on1 [WIN54954, reference compound] |  |  |  | CC50 (H1-HeLa cells): > 63 µM; EC50 (HRV-14; HRV-14, H1-HeLa cells): 2.13 µM |
| Cbz-L-Leu-L-Phe-L-(N-Boc-amino-Ala)-CH3 [Compound 4] |  |  |  | Ki ([3]; HRV-14 3C protease, read-out: Ki): 16.3 µM |
| CC(C)C[C@H](NC(=O)OCc1ccccc1)C(=O)N[C@@H](Cc1ccccc1)C(=O)N[C@@H](C[C@@H]1CCNC1=O)C(=O)c1nc2ccccc2s1 [Compound 21, Cbz-L-Leu-L-Phe-L-[(S)-Pyrrol-Ala]-2-Benzthiazole] | > 320 | 3.2 | 0.065 | melting point: 108 to 111 °C |
| CC(C)C[C@H](NC(=O)OCc1ccccc1)C(=O)N[C@@H](Cc1ccccc1)C(=O)N[C@@H](C[C@@H]1CCNC1=O)C(=O)c1ccccn1 [Compound 23, Cbz-L-Leu-L-Phe-L-[(S)-Pyrrol-Ala]-2-Pyridine] | 200 | 4 | 0.17 |  |
| CC(C)C[C@H](NC(=O)OCc1ccccc1)C(=O)N[C@@H](Cc1ccccc1)C(=O)N[C@@H](CNC(=O)OC(C)(C)C)C(=O)c1nc2ccccc2s1 [Compound 6, Cbz-L-Leu-L-Phe-L-(N-Boc-amino-Ala)-2-Benzthiazole] |  |  | 4.8 |  |
| CC(C)C[C@H](NC(=O)OCc1ccccc1)C(=O)N[C@@H](Cc1ccccc1)C(=O)N[C@@H](C[C@@H]1CCNC1=O)C(=O)c1cc2ccccc2s1 [Compound 25, Cbz-L-Leu-L-Phe-L-[(S)-Pyrrol-Ala]-2-Benzothiophene] | > 10 | > 10 | 4.7 |  |
| CNC(=O)C(=O)[C@H](CNC(C)=O)NC(=O)[C@H](Cc1ccccc1)NC(=O)[C@H](CC(C)C)NC(=O)OCc1ccccc1 [Compound 10, Cbz-L-Leu-L-Phe-L-(N-Ac-amino-Ala)-C(O)NHCH3] | > 320 | 251 | 20 |  |
| CC(C)C[C@H](NC(=O)OCc1ccccc1)C(=O)N[C@@H](Cc1ccccc1)C(=O)N[C@@H](CCC(N)=O)C(=O)COC(=O)c1c(Cl)cccc1Cl [Compound 27, Cbz-L-Leu-L-Phe-L-Gln-CH2OC(O)-(2,6-dichlorophenyl)] |  |  |  | kinact/KI ([3]; pH 7.6, HRV-14 3C protease, progress curves in enzyme start experiments, read-out: kobs/[I]): 2500 M⁻¹ s⁻¹ |
| COCC(=O)[C@H](CNC(C)=O)NC(=O)[C@H](Cc1ccccc1)NC(=O)[C@H](CC(C)C)NC(=O)OCc1ccccc1 [Compound 19, Cbz-L-Leu-L-Phe-L-(N-Ac-amino-Ala)-CH2OCH3] |  |  | 27 | Ki [1]: 27 µM; Ki [4]: 20.6 µM; Ki [2]: 12.9 µM |
| COCC#CC(=O)[C@H](CNC(C)=O)NC(=O)[C@H](Cc1ccccc1)NC(=O)[C@H](CC(C)C)NC(=O)OCc1ccccc1 [Compound 17, Cbz-L-Leu-L-Phe-L-(N-Ac-amino-AIa)-C≡CCH2OCH3] | > 100 | > 100 | 0.075 |  |
| CC(C)C[C@H](NC(=O)OCc1ccccc1)C(=O)N[C@@H](Cc1ccccc1)C(=O)N[C@@H](C[C@@H]1CCNC1=O)C(=O)c1ccccc1 [Compound 26, Cbz-L-Leu-L-Phe-L-[(S)-Pyrrol-Ala]-Ph] | > 10 | > 10 | 3.22 |  |
| CC(C)C[C@H](NC(=O)OCc1ccccc1)C(=O)N[C@@H](Cc1ccccc1)C(=O)N[C@@H](CCC(N)=O)C(=O)c1nc2ccccc2s1 [Compound 20, Cbz-L-Leu-L-Phe-L-Gln-2-Benzthiazole] | > 100 | 17.4 | 3.5 |  |
| CC(=O)NC[C@H](NC(=O)[C@H](Cc1ccccc1)NC(=O)[C@H](CC(C)C)NC(=O)OCc1ccccc1)C(=O)C(=O)N1CCCCC1 [Compound 11, Cbz-L-Leu-L-Phe-L-(N-Ac-amino-Ala)-C(O)-Piperidine] |  |  | > 110 |  |
| CC(=O)NC[C@H](NC(=O)[C@H](Cc1ccccc1)NC(=O)[C@H](CC(C)C)NC(=O)OCc1ccccc1)C(=O)COC(=O)c1c(C)cc(C)cc1C [Compound 3, Cbz-L-Leu-L-Phe-L-(N-Ac-amino-Ala)-CH2OC(O)-(2,4,6-trimethylphenyl)] | 25 | > 25 |  | kobs/[I] ([3]; HRV-14 3C protease, progress curves in enzyme start experiments): slow |
| Cc1cc(CCCCCCCOc2ccc(C3=NCCO3)cc2)on1 [WIN51711, reference compound] |  |  |  | CC50 (H1-HeLa cells): > 60 µM; EC50 (HRV-14; HRV-14, H1-HeLa cells): 0.78 µM |
